Measured values from patent US20130273180A1, “SYSTEM AND METHOD FOR IMPROVING OUTCOME OF CEREBRAL ISCHEMIA” (priority 2012, published 2013).
Entries after “also recorded” stand apart in the source; their conditions may differ.

How the values were obtained:
[1] = tested on: intubated rodents; assay: Cerebral blood flow by cortical laser Doppler during intranasal nitric oxide in intubated rodents; format: in vivo
Method: (§1) In intubated rodents, the inventors have shown that cerebral blood flow increases by 100% within 60 minutes of intranasal nitric oxide delivery.

[2] = tested on: intubated rodents, carotid artery occlusion model; assay: Carotid artery occlusion model, Speckle laser Doppler, intubated rodents; format: in vivo
Method: as §1
Increase in cerebral blood flow is attributable to focal intranasal or intra-oral effect of nitric oxide rather than to systemic absorption of the gas. […] The effect on cerebral blood flow during intranasal delivery of nitric oxide with concomitant air inhalation into the lungs is therefore a focal effect on intranasal and intracranial vasculature attributable specifically to nitric oxide. […] In a non-intubated patient, nitric oxide inhalation can be prevented by occluding the nasal cavity anterior or posterior to the site of gas delivery. This is achieved by means of an anterior occlusion device such a rigid member, an expandable member, a compressible member, a sponge, a porous member, a plug, a balloon, foam and/or combinations of the foregoing, which prevent inhalation through the nostrils while maintaining a high concentration of nitric oxide in the nasal cavity. A non-intubated patient may be allowed to inhale air into the lungs during nitric oxide delivery into the nasal cavity by an optional central lumen with the distal orifice beyond the sites of nasal gas delivery and occlusion device.

[3] = tested on: human with focal cerebral ischemia; assay: CT perfusion scanning before and after intranasal nitric oxide in intubated patients with cerebral ischemia; format: in vivo
[4] = tested on: humans (normal volunteers); assay: Tolerability of intranasal nitric oxide delivery in humans (normal volunteers); format: in vivo, human
Excerpt: While nitric oxide may be given intranasally and without inhalation into the lungs to intubated, comatose individuals the tolerability of intranasal nitric oxide in awake humans has not previously been investigated. The inventors have tested the effect of nitric oxide in humans (normal volunteers) during intranasal delivery. […] Therefore it can easily be tolerated by awake, non-intubated patients.

[5] = Post Rx, one hour of intranasal non-inhaled nitric oxide

[N]=O [nitric oxide]
cerebral blood flow (FIG. 8) ([1]; cortical laser Doppler, during intranasal administration): doubling
cerebral blood flow increase ([1]; within 60 minutes of intranasal delivery, non-inhaled): 100%
cerebral ischemia (FIG. 9) ([2]; Speckle laser Doppler tracing, intubated rodents): reduction
perfusion in the ischemic hemisphere ([2]; during the carotid occlusion and following ligature release): improved
Cerebral Blood Flow, Changes in ACA Watershed ([3]; Post Rx): Normalization,
Mean Transit Time, Changes in ACA Watershed ([3]; Post Rx): Normalization
increase in perfusion on L (ACA Watershed) ([3]; Post Rx versus Pre Rx, ischemic left hemisphere): 67% increase in
Cerebral Blood Flow, Left Hemisphere (ischemic) [3, 5]: 52
Cerebral Blood Flow, Right Hemisphere (normal) [3, 5]: 45
Mean Transit Time, Left Hemisphere (ischemic) [3, 5]: 6.0 s
Mean Transit Time, Right Hemisphere (normal) [3, 5]: 6.1 s
cerebral perfusion on CT perfusion scan ([3]; before and after treatment, human with focal cerebral ischemia): improvement; also recorded: augmentation of cerebral perfusion and normalization of regional perfusion abnormalities
sensation during intranasal delivery ([4]; concentrations up to 100 PPM, normal volunteers): does not elicit any sensation
tolerability of gas treatment ([4]; high concentration, delivered intra-nasally and without inhalation): tolerated
